Data from patent US6492520B1, “Substituted pyrido-or pyrimido-containing 6,6- or 6,7-bicyclic derivatives” (Pfizer Inc, priority 1996, dated 2002).

melting point: 138 to 140 °C
SMILES: CCC(CC)N1CCNc2c1cc(C)nc2Oc1c(C)cc(C)cc1C [Example 4, 1-(1-Ethyl-propyl)-7-methyl-5-(2,4,6-trimethyl-phenoxy)-1,2,3,4-tetrahydro-pyrido[3,4-b]pyrazine]
